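These data come from cells grown in 96-well plates and exposed to compound for 48 hours at five concentrations. TGI: total growth inhibition.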
What was measured:
Test in all cases: NCI-60 cell line screen, 48 h
CAKI-1 renal = tested on: CAKI-1 renal
EKVX NSCLC = tested on: EKVX NSCLC
SR leukemia = tested on: SR leukemia
CCRF-CEM leukemia = tested on: CCRF-CEM leukemia
UO-31 renal = tested on: UO-31 renal
NCI-H522 lung = tested on: NCI-H522 lung
786-0 renal = tested on: 786-0 renal
HOP-92 NSCLC = tested on: HOP-92 NSCLC
HCT-116 colon = tested on: HCT-116 colon
HOP-62 NSCLC = tested on: HOP-62 NSCLC
MALME-3M melanoma = tested on: MALME-3M melanoma
SN12C renal = tested on: SN12C renal
NCI-H23 lung = tested on: NCI-H23 lung
U251 CNS = tested on: U251 CNS
SF-539 CNS = tested on: SF-539 CNS
SK-MEL-28 melanoma = tested on: SK-MEL-28 melanoma
A498 renal = tested on: A498 renal

| Structure (SMILES) | TGI (CAKI-1 renal) [µM] | TGI (EKVX NSCLC) [µM] | TGI (SR leukemia) [µM] | TGI (CCRF-CEM leukemia) [µM] | TGI (UO-31 renal) [µM] | TGI (NCI-H522 lung) [µM] | TGI (786-0 renal) [µM] | TGI (HOP-92 NSCLC) [µM] | TGI (HCT-116 colon) [µM] | TGI (HOP-62 NSCLC) [µM] | TGI (MALME-3M melanoma) [µM] | TGI (SN12C renal) [µM] | TGI (NCI-H23 lung) [µM] | TGI (U251 CNS) [µM] | TGI (SF-539 CNS) [µM] | TGI (SK-MEL-28 melanoma) [µM] | TGI (A498 renal) [µM] |
| --- | --- | --- | --- | --- | --- | --- | --- | --- | --- | --- | --- | --- | --- | --- | --- | --- | --- |
| Cc1ccc2c(c1)C1(OC(=O)c3ccccc31)c1ccc(F)cc1O2 (configuration not stated) | > 100 | > 100 | 73.8 | > 100 | 75.8 | > 100 | > 100 | > 100 | > 100 | > 100 | > 100 | > 100 | – | – | – | – | – |
| CC(=O)OC1CC2(C)OC(Cc3ccccc32)O1 (configuration not stated) | – | > 100 | > 100 | > 100 | > 100 | > 100 | > 100 | > 100 | > 100 | > 100 | > 100 | > 100 | > 100 | > 100 | > 100 | > 100 | – |
| Cc1ccc(NCC(=O)N2CC(=O)Nc3ccccc32)cc1 | > 100 | > 100 | > 100 | > 100 | > 100 | > 100 | > 100 | > 100 | > 100 | > 100 | > 100 | > 100 | > 100 | > 100 | > 100 | > 100 | – |
| c1cnc2c(c1)-n1cccc1C1(CCSC1)NN2 (configuration not stated) | > 100 | > 100 | > 100 | > 100 | > 100 | > 100 | > 100 | – | > 100 | > 100 | > 100 | > 100 | > 100 | > 100 | > 100 | > 100 | – |
| COC(=O)C(CC(C)=O)CS(=O)(=O)CC(=O)C(=O)Nc1cccc([N+](=O)[O-])c1 (configuration not stated) | > 100 | > 100 | – | > 100 | > 100 | > 100 | > 100 | > 100 | > 100 | > 100 | > 100 | > 100 | > 100 | > 100 | > 100 | > 100 | > 100 |
| CCC12CCCNC1c1c(n(C)c3ccccc13)C(C(=O)OC)C2 (configuration not stated) | 77.3 | > 275 | > 275 | > 275 | – | 37.6 | > 275 | 113 | > 275 | > 275 | > 275 | > 275 | 252 | > 275 | > 275 | > 275 | – |
| COc1ccc(N2C(=O)c3c(c4[nH]c5ccc(OC)cc5c4c4ccc(C(C)(C)C)cc34)C2=O)cc1 | – | > 100 | – | > 100 | > 100 | > 100 | > 100 | > 100 | > 100 | > 100 | > 100 | > 100 | > 100 | > 100 | > 100 | > 100 | – |
| CCCC(N)C(=O)c1ccccc1 (configuration not stated) | > 100 | > 100 | > 100 | > 100 | > 100 | > 100 | > 100 | > 100 | > 100 | > 100 | > 100 | > 100 | > 100 | > 100 | > 100 | > 100 | > 100 |
| Cc1cc(C)n2c(-c3ccccc3)c(C)cc2n1 | > 100 | > 100 | – | 43.6 | > 100 | 64.4 | > 100 | > 100 | > 100 | > 100 | > 100 | > 100 | > 100 | > 100 | 73.4 | > 100 | > 100 |
| COC(=O)C1=CC2CC1C(S(=O)(=O)c1ccccc1)C2S(=O)(=O)c1ccccc1 (configuration not stated) | 20.8 | – | 11.3 | 8.44 | 27.7 | – | 22.2 | 29.4 | 28.7 | > 100 | 23.5 | 28.8 | 36.8 | 35.8 | – | 30.4 | 42.9 |
| CC(Oc1ccc(OCC2CCCCC2)cc1)C(=O)NCCO (configuration not stated) | – | – | – | > 100 | > 100 | > 100 | > 100 | – | > 100 | – | > 100 | > 100 | > 100 | > 100 | > 100 | > 100 | > 100 |
| C[C@H](NC(=O)n1c2ccccc2c2ccccc21)C(=O)O | > 100 | > 100 | > 100 | > 100 | – | > 100 | > 100 | > 100 | > 100 | > 100 | > 100 | > 100 | > 100 | > 100 | > 100 | > 100 | – |
| Cc1cc2oc(-c3ccccc3)c(C)c(=O)c2c2c1OC(C)(C)S2 | – | > 100 | > 100 | > 100 | > 100 | > 100 | > 100 | > 100 | > 100 | > 100 | > 100 | > 100 | > 100 | > 100 | > 100 | > 100 | – |
